Results taken from US20240335462A1, “SULFUR/PHOSPHORUS-CONTAINING ARYL COMPOUND AND APPLICATION THEREOF” (MEDSHINE DISCOVERY INC., priority 2021, published 2024).
Read-outs that look alike come from different tables or passages of the source. Marks after values point to notes of the source that are not given here.

What was measured:
[1] = Pharmacokinetic testing in rats; type: in vivo, male SD rats; details: rat; for C0: read-out: Starting concentration C0; for Cmax: read-out: Peak concentration Cmax; for AUC(0-t): read-out: Area under the curve AUC0-last
Method: The objective was to study the pharmacokinetic behavior of the compound of the present disclosure in rats and evaluate the pharmacokinetic characteristics, using male SD rats aged 7 to 9 weeks as test animals. The drug concentrations in plasma at different time points after a single intravenous injection (IV) and oral administration (P0) of the compound were determined using LC/MS/MS.
The pharmacokinetic characteristics of the compound in rodents following intravenous injection and oral administration were tested using a standard protocol. Test animals were fasted for 10 to 14 hours before administration and allowed to feed 4 hours post-administration. The compound was prepared into a clear solution with the appropriate solvent for both IV (intravenous injection) and PO (oral gavage) administration. The solvent was […]+10% solutol+80% (10% HP-β-CD aqueous solution). Whole blood samples were collected within 24 hours, centrifuged at 6000 g for 3 minutes, and the supernatant was separated to obtain plasma samples. Protein precipitation was performed by adding four times the volume of acetonitrile solution containing internal standard to the plasma samples. After centrifugation, the supernatant was added with an equal volume of water and then centrifuged before being subjected to LC-MS/MS analysis for quantifying plasma drug concentration. Pharmacokinetic parameters such as peak concentration, time to peak concentration, clearance, half-life, area under the drug-time curve, and bioavailability were calculated.

[2] = tested on: IL-23-induced psoriasis-like skin lesions; assay: Mouse psoriasis-like model induced by IL-23; type: in vivo, C57BL/6 mice; parameters: Total score for epidermal hyperplasia of ear pinnae / AUC of total score for epidermal hyperplasia of ear pinnae / Pathological score: Degree of keratinization / Pathological score: Epidermal thickness / Pathological score: Dermal thickness / Pathological score: Inflammatory cell infiltration / Comprehensive pathological score: scale not given here; details: for AUC of total score for epidermal hyperplasia of ear pinnae: Day 0 to Day 8; for Comprehensive pathological score / Pathological score: Degree of keratinization / Pathological score: Dermal thickness / Pathological score: Epidermal thickness / Pathological score: Inflammatory cell infiltration: right ear H&E sections
Source text: The purpose of this experiment was to evaluate the prophylactic and therapeutic effect of the test substance on IL-23-induced psoriasis-like skin lesions in mice by intradermal injection of IL-23 into the ear pinnae in a psoriasis-like skin lesion model.
Female C57BL/6 mice of qualified body weight were randomly divided into groups, with 6 mice per group. The grouping and administration information was as follows. The groups were: blank control group, model group, positive control Ustekinumab (5 mg/kg) group, WX-011A hydrochloride (30, 50 mg/kg) group, and WX-020 sulfate (30, 50 mg/kg) group. Except for the blank control group, the animals in the other groups received an intradermal injection of IL-23 (3 μg/10 μL/mouse/day, QD) in the right ear for 8 consecutive days (Day 0 to Day 7). The blank control group received an intradermal injection of an equal volume of saline solution (10 μL/mouse/day, QD) in the right ear for 8 consecutive days (Day 0 to Day 7). Concurrent with model induction, the solvent or test drug was orally administered twice a day (Bid) at 6-hour intervals for 8 consecutive days (Day 0 to Day 7). The positive control was subcutaneously injected on Day 0 and Day 3 (a total of 2 doses). During the administration period, the body weight of the animals was monitored every two days. On Day 0, Day 2, Day 4, Day 6 (all before IL-23 injection), and Day 8, the thickness of the right ear of the mice was measured, and the appearance of the ear pinnae was observed and scored.
The compounds were all prepared into a clear solution with 10% DMSO+[…] as a solvent for PO (oral gavage) administration. Administration volume parameters: 10 mL/kg based on the body weight of the mice.
After grouping, IL-23 (3 μg/10 μL/mouse/day, QD) was injected intradermally into the right ears of the mice for 8 consecutive days (Day 0 to Day 7). Measurements of the thickness of the right ear and observations and scoring of the appearance of the ear pinnae were performed on Day 0, Day 2, Day 4, Day 6 (all before IL-23 injection), and Day 8. At the end of the experiment (Day 8), the left ear tissues of the mice from groups G4 to G10 (3 animals per group at each time point) were collected. The right ear, which had been modeled, was excised, an 8 mm ear punch was taken along the edge of the pinna, and its weight was measured. The excised right ear tissues were fixed in formalin for histopathological examination (H&E staining).
Concurrent with model induction, corresponding drug treatment was given for administration. Except for the positive control drug (Ustekinumab), which was subcutaneously injected on Day 0 and Day 3 (once a day), control and test drugs for each dose group were orally administered by gavage twice a day at 6-hour intervals for 8 consecutive days (Day 0 to Day 7).
The pathological scoring of mouse ear tissue sections was conducted according to the criteria in Table 33.
The experimental data are represented as Mean±SD; statistical analysis was performed using IBM SPSS Statistics 21, with p<0.05 considered to indicate a statistically significant difference between the two groups. The effect of the test substance on the thickness of mouse ears in the IL-23 induced mouse pinna epidermal hyperplasia model is shown in Table 34. The effect of the test substance on the total score and AUC for […] induced mouse pinna epidermal hyperplasia is shown in Table 35.

With `CNC(=O)c1nnc(NC(=O)C2CC2)cc1Nc1cccc(-c2ncc(S(=N)(=O)C(C)C)cn2)c1OC.Cl` (single isomer, unassigned) [Hydrochloride of WX-011A] the “Apparent clearance Cl” value ([1]; IV 1 mg/kg) was 16.8 mL/min/kg, the “Apparent volume of distribution Vd” value ([1]; IV 1 mg/kg) was 0.5 L/kg and the “Area under the curve AUC0-last” value ([1]; IV 1 mg/kg) was 2.075 µM·h. For the same compound, the “Half-life T1/2” value ([1]; IV 1 mg/kg) was 36 min, the C0 ([1]; IV 1 mg/kg) was 4.54 µM and the “Area under the curve AUC0-last” value ([1]; PO 10 mg/kg) was 8.202 µM·h. For the same compound, the “Bioavailability F %” value ([1]; PO 10 mg/kg) was 41%, the “Time to peak concentration Tmax” value ([1]; PO 10 mg/kg) was 30 min and the Cmax ([1]; PO 10 mg/kg) was 4.39 µM. For the same compound, the “Ear thickness (mm)” value ([2]; 30 mg/kg PO BID, Day 0) was 0.199 mm, the “Total score for epidermal hyperplasia of ear pinnae” value ([2]; 30 mg/kg PO BID, Day 0) was 0.00 and the “AUC of total score for epidermal hyperplasia of ear pinnae” value (“AUC of total score” for short) ([2]; 30 mg/kg PO BID) was 3.17**. For the same compound, the “Ear thickness (mm)” value ([2]; 30 mg/kg PO BID, Day 2) was 0.274* mm, the “Total score for epidermal hyperplasia of ear pinnae” value ([2]; 30 mg/kg PO BID, Day 2) was 0.00 and the “Ear thickness (mm)” value ([2]; 30 mg/kg PO BID, Day 4) was 0.299* mm. For the same compound, the “Total score for epidermal hyperplasia of ear pinnae” value ([2]; 30 mg/kg PO BID, Day 4) was 0.33*, the “Ear thickness (mm)” value ([2]; 30 mg/kg PO BID, Day 6) was 0.297** mm and the “Total score for epidermal hyperplasia of ear pinnae” value ([2]; 30 mg/kg PO BID, Day 6) was 0.67**. For the same compound, the “Ear thickness (mm)” value ([2]; 30 mg/kg PO BID, Day 8) was 0.301** mm, the “Total score for epidermal hyperplasia of ear pinnae” value ([2]; 30 mg/kg PO BID, Day 8) was 1.17** and the Comprehensive pathological score ([2]; 30 mg/kg PO BID) was 1.17**. For the same compound, the “Pathological score: Degree of keratinization” value (from here on “Pathological score: Degree”) ([2]; 30 mg/kg PO BID) was 0.17**, the “Pathological score: Dermal thickness” value ([2]; 30 mg/kg PO BID) was 0.17 and the “Pathological score: Epidermal thickness” value ([2]; 30 mg/kg PO BID) was 0.67**. The “Pathological score: Inflammatory cell infiltration” value ([2]; 30 mg/kg PO BID) was 0.17**, the “Ear thickness (mm)” value ([2]; 50 mg/kg PO BID, Day 0) was 0.197 mm and the “Total score for epidermal hyperplasia of ear pinnae” value ([2]; 50 mg/kg PO BID, Day 0) was 0.00. For the same compound, the “AUC of total score” value ([2]; 50 mg/kg PO BID) was 2.67**, the “Ear thickness (mm)” value ([2]; 50 mg/kg PO BID, Day 2) was 0.279^p=0.081 mm and the “Total score for epidermal hyperplasia of ear pinnae” value ([2]; 50 mg/kg PO BID, Day 2) was 0.00. For the same compound, the “Ear thickness (mm)” value ([2]; 50 mg/kg PO BID, Day 4) was 0.291 * mm, the “Total score for epidermal hyperplasia of ear pinnae” value ([2]; 50 mg/kg PO BID, Day 4) was 0.17** and the “Ear thickness (mm)” value ([2]; 50 mg/kg PO BID, Day 6) was 0.299** mm. The “Total score for epidermal hyperplasia of ear pinnae” value ([2]; 50 mg/kg PO BID, Day 6) was 0.67**, the “Ear thickness (mm)” value ([2]; 50 mg/kg PO BID, Day 8) was 0.300** mm and the “Total score for epidermal hyperplasia of ear pinnae” value ([2]; 50 mg/kg PO BID, Day 8) was 1.00*. The Comprehensive pathological score ([2]; 50 mg/kg PO BID) was 1.83**, the “Pathological score: Degree” value ([2]; 50 mg/kg PO BID) was 0.33** and the “Pathological score: Dermal thickness” value ([2]; 50 mg/kg PO BID) was 0.50. For the same compound, the “Pathological score: Epidermal thickness” value ([2]; 50 mg/kg PO BID) was 0.50** and the “Pathological score: Inflammatory cell infiltration” value ([2]; 50 mg/kg PO BID) was 0.50**.
For `CNC(=O)c1cnc(NC(=O)C2CC2)cc1Nc1cccc(-c2ccc(S(=O)(=O)C(C)C)cn2)c1OC.O=S(=O)(O)O` [Sulfate of WX-020], the “Ear thickness (mm)” value ([2]; 30 mg/kg PO BID, Day 0) was 0.197 mm, the “Total score for epidermal hyperplasia of ear pinnae” value ([2]; 30 mg/kg PO BID, Day 0) was 0.00 and the “AUC of total score” value ([2]; 30 mg/kg PO BID) was 7.67. The “Ear thickness (mm)” value ([2]; 30 mg/kg PO BID, Day 2) was 0.283 mm, the “Total score for epidermal hyperplasia of ear pinnae” value ([2]; 30 mg/kg PO BID, Day 2) was 0.00 and the “Ear thickness (mm)” value ([2]; 30 mg/kg PO BID, Day 4) was 0.311 mm. The “Total score for epidermal hyperplasia of ear pinnae” value ([2]; 30 mg/kg PO BID, Day 4) was 0.50*, the “Ear thickness (mm)” value ([2]; 30 mg/kg PO BID, Day 6) was 0.351** mm and the “Total score for epidermal hyperplasia of ear pinnae” value ([2]; 30 mg/kg PO BID, Day 6) was 2.5. For the same compound, the “Ear thickness (mm)” value ([2]; 30 mg/kg PO BID, Day 8) was 0.343^p=0.082 mm, the “Total score for epidermal hyperplasia of ear pinnae” value ([2]; 30 mg/kg PO BID, Day 8) was 1.67* and the Comprehensive pathological score ([2]; 30 mg/kg PO BID) was 4.17**. The “Pathological score: Degree” value ([2]; 30 mg/kg PO BID) was 0.83**, the “Pathological score: Dermal thickness” value ([2]; 30 mg/kg PO BID) was 1.33 and the “Pathological score: Epidermal thickness” value ([2]; 30 mg/kg PO BID) was 0.83**. For the same compound, the “Pathological score: Inflammatory cell infiltration” value ([2]; 30 mg/kg PO BID) was 1.17**, the “Ear thickness (mm)” value ([2]; 50 mg/kg PO BID, Day 0) was 0.195 mm and the “Total score for epidermal hyperplasia of ear pinnae” value ([2]; 50 mg/kg PO BID, Day 0) was 0.00. For the same compound, the “AUC of total score” value ([2]; 50 mg/kg PO BID) was 5.00*, the “Ear thickness (mm)” value ([2]; 50 mg/kg PO BID, Day 2) was 0.289 mm and the “Total score for epidermal hyperplasia of ear pinnae” value ([2]; 50 mg/kg PO BID, Day 2) was 0.00. The “Ear thickness (mm)” value ([2]; 50 mg/kg PO BID, Day 4) was 0.303* mm, the “Total score for epidermal hyperplasia of ear pinnae” value ([2]; 50 mg/kg PO BID, Day 4) was 0.50* and the “Ear thickness (mm)” value ([2]; 50 mg/kg PO BID, Day 6) was 0.311** mm. The “Total score for epidermal hyperplasia of ear pinnae” value ([2]; 50 mg/kg PO BID, Day 6) was 1.33*, the “Ear thickness (mm)” value ([2]; 50 mg/kg PO BID, Day 8) was 0.317** mm and the “Total score for epidermal hyperplasia of ear pinnae” value ([2]; 50 mg/kg PO BID, Day 8) was 1.33**. The Comprehensive pathological score ([2]; 50 mg/kg PO BID) was 2.17**, the “Pathological score: Degree” value ([2]; 50 mg/kg PO BID) was 0.33** and the “Pathological score: Dermal thickness” value ([2]; 50 mg/kg PO BID) was 0.50. For the same compound, the “Pathological score: Epidermal thickness” value ([2]; 50 mg/kg PO BID) was 0.67** and the “Pathological score: Inflammatory cell infiltration” value ([2]; 50 mg/kg PO BID) was 0.67**.
For `CNC(=O)c1cnc(NC(=O)C2CC2)cc1Nc1cccc(-c2ccc(S(=O)(=O)C(C)C)cn2)c1OC` [WX-020], the Vd ([1]; male, SD, plasma, IV 3 mg/kg, read-out: Apparent volume of distribution Vd) was 0.9 L/kg, the AUC(0-t) ([1]; male, SD, plasma, IV 3 mg/kg) was 2.61 µM·h and the half-life ([1]; male, SD, plasma, IV 3 mg/kg, read-out: Half-life T1/2 (converted)) was 54 min. It also gave a C0 ([1]; male, SD, plasma, IV 3 mg/kg) of 3.03 µM, an AUC(0-t) ([1]; male, SD, plasma, PO 10 mg/kg) of 9.76 µM·h and a bioavailability ([1]; male, SD, plasma, PO 10 mg/kg, read-out: Bioavailability F%) of 39%. For the same compound, the Cmax ([1]; male, SD, plasma, PO 10 mg/kg) was 3.38 µM, the Tmax ([1]; male, SD, plasma, PO 10 mg/kg, read-out: Time to peak concentration Tmax) was 48 min and the “Apparent clearance Cl” value ([1]; IV 3 mg/kg) was 13.1 mL/min/kg.
